The source made the active and inactive calls. No cut-off for these calls is given here.
Key:
[1] = Acute toxicity in athymic Nude-Foxn1nu BALB/c mouse xenografted with human MDA-MB-231 cells assessed as effect on serum ALT level at 200 mg/kg, po administered once daily via gavage for 14 days; format: organism-based; settings: in vivo, 336 h
MCF7 = assay: Cytotoxicity against human MCF7 cells assessed as reduction in cell viability measured after 72 hrs by MTT assay; format: functional, cell-based; settings: MCF7, 72 h
[2] = target: T1, Serine/threonine-protein kinase LATS1 (Homo sapiens) (UniProt O95835); assay: Activation of LATS1 in human MDA-MB-231 cells assessed as increase in phosphorylation at Ser909 residue measured after 24 hrs by Western blot analysis; format: cell-based
T1 sequence (whole entry): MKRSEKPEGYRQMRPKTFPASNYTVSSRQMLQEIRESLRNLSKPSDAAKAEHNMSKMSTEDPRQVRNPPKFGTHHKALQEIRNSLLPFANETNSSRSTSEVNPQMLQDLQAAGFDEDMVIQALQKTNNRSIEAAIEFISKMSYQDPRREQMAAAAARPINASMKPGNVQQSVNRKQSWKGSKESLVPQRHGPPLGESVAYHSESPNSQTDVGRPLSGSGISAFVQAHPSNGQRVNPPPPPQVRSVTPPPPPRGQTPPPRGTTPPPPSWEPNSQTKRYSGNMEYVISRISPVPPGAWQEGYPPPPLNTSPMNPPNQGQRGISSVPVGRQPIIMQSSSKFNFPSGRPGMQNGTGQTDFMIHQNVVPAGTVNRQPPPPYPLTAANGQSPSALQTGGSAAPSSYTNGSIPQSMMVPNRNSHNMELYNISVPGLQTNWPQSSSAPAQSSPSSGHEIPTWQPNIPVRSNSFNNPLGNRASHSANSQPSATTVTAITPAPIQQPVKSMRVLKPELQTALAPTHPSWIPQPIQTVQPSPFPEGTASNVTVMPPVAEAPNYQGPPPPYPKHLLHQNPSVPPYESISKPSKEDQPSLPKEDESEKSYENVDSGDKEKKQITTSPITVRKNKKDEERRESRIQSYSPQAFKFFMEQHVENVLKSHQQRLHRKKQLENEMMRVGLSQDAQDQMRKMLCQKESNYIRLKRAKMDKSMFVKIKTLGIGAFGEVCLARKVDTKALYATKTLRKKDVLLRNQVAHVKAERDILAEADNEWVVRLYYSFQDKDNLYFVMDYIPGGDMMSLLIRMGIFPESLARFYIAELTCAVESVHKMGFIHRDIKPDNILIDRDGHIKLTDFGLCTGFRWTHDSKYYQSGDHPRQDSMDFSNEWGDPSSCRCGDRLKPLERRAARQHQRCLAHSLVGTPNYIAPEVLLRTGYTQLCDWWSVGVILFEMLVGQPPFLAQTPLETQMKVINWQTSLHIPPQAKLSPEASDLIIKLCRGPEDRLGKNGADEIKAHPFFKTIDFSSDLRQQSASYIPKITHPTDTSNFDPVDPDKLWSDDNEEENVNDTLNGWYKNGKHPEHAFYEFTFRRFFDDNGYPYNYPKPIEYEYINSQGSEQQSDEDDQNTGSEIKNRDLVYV

PC-9 = assay: Cytostatic activity against human PC9 cells assessed as cell viability at concentration of greater than IC50 measured up to 72 hrs by MTT assay; format: functional, cell-based
MDA-MB-231 [3] = assay: Effect on MST1 expression in human MDA-MB-231 cells at 0.25 to 1.5 uM measured after 24 hrs by Western blot analysis; format: functional, cell-based
[4] = target: T1, Serine/threonine-protein kinase LATS1 (Homo sapiens); assay: Activation of LATS1 in human PC3 cells assessed as increase in phosphorylation at Ser909 residue measured after 24 hrs by Western blot analysis; format: cell-based
PC-3 = assay: Downregulation of TAZ protein expression in human PC3 cells at 0.25 to 1.5 uM measured after 24 to 48 hrs by immunoblotting analysis; format: functional, cell-based
[5] = target: T1, Serine/threonine-protein kinase LATS1 (Homo sapiens); assay: Activation of LATS1 in triple-negative human SUM159 cells assessed as effect on YAP mRNA level at 0.25 to 1 uM measured after 12 hrs by Trizol reagent based RT-PCR analysis
[6] = target: Serine/threonine-protein kinase 3/4 (Homo sapiens) (UniProt Q13043+Q13188); assay: Activation of MST1/2 in human MDA-MB-231 cells assessed as effect on phosphorylation at T183/T180 residues at 0.25 to 1.5 uM measured after 24 hrs by Western blot analysis; format: cell-based
Sequence of Serine/threonine-protein kinase 3/4 (Homo sapiens) (Q13043 whole entry, looked up): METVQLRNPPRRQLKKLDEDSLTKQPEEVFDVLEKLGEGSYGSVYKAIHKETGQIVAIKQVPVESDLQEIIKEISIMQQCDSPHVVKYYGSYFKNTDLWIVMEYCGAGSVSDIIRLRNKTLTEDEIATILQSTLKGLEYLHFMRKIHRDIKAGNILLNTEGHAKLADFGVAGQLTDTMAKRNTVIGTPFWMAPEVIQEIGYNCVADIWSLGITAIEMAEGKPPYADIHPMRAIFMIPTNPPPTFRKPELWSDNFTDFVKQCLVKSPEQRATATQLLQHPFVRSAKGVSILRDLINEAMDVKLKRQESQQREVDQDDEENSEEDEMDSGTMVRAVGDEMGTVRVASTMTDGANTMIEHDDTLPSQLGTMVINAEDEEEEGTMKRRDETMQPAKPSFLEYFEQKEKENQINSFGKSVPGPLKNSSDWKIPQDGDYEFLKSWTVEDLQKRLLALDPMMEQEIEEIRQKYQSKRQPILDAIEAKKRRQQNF
Sequence of Serine/threonine-protein kinase 3/4 (Homo sapiens) (Q13188 whole entry, looked up): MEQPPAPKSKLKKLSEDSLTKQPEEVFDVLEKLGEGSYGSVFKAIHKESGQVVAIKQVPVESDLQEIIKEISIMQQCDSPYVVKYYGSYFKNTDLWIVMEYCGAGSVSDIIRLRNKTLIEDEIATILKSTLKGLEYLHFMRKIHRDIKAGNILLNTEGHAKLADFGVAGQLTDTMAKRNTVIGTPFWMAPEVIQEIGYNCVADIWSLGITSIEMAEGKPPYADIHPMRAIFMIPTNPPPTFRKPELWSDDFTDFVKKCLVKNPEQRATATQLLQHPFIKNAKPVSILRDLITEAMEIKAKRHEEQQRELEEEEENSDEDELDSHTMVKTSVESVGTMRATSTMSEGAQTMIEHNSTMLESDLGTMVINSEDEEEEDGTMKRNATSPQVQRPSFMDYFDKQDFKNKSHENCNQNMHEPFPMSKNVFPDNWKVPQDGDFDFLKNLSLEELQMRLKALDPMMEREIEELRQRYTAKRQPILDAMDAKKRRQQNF

SUM-159-PT [7] = assay: Cytotoxicity against human SUM159 cells assessed as reduction in cell viability measured after 72 hrs by MTT assay; format: functional, cell-based
MDA-MB-231 [8] = assay: Cytostatic activity against human MDA-MB-231 cells assessed as cell viability at concentration of greater than IC50 measured up to 72 hrs by MTT assay; format: functional, cell-based
SUM-159-PT [9] = assay: Cytotoxicity against human SUM159 cells assessed as reduction in cell viability at 0.2 to 1.2 uM by MTT assay; format: functional, cell-based; settings: TDE = time-dependent effect
MDA-MB-231 [10] = assay: Cytotoxicity against human MDA-MB-231 cells assessed as reduction in cell viability at 0.2 to 1.2 uM by MTT assay; format: functional, cell-based; settings: TDE = time-dependent effect
[11] = Acute toxicity in athymic Nude-Foxn1nu BALB/c mouse xenografted with human MDA-MB-231 cells assessed as effect on serum albumin level at 200 mg/kg, po administered once daily via gavage for 14 days; format: organism-based; settings: in vivo, 336 h
[12] = Acute toxicity in athymic Nude-Foxn1nu BALB/c mouse xenografted with human MDA-MB-231 cells assessed as effect on serum creatinine level at 200 mg/kg, po administered once daily via gavage for 14 days; format: organism-based; settings: in vivo, 336 h
[13] = target: T1, Serine/threonine-protein kinase LATS1 (Homo sapiens); assay: Activation of LATS1 in triple-negative human SUM159 cells transfected with YAP/TAZ-TEAD reporter plasmid containing 8xGTIIC binding site and cotransfected with pCMV-Luc assessed as suppression of YAP/TAZ luciferase activity measured after 12 hrs by dual luciferase reporter assay
MDA-MB-231 [14] = assay: Effect on MST2 expression in human MDA-MB-231 cells at 0.25 to 1.5 uM measured after 24 hrs by Western blot analysis; format: functional, cell-based
[15] = target: T1, Serine/threonine-protein kinase LATS1 (Homo sapiens); assay: Activation of LATS1 in human SUM159 cells assessed as induction of YAP degradation by measuring suppression of YAP protein expression at 0.25 to 1.5 uM measured after 12 to 24 hrs by immunoblotting analysis; format: cell-based
SUM-159-PT [16] = assay: Effect on MST1 expression in human SUM159 cells at 0.25 to 1.5 uM measured after 12 hrs by Western blot analysis; format: functional, cell-based
Homo sapiens = species: Homo sapiens; assay: Activation of MOB in human SUM159 cells assessed as phosphorylation at Thr35 residue at 0.25 to 1.25 uM measured after 12 hrs by Western blot analysis; format: cell-based
SUM-159-PT [17] = assay: Effect on MST2 expression in human SUM159 cells at 0.25 to 1.5 uM measured after 12 hrs by Western blot analysis; format: functional, cell-based
[18] = target: T1, Serine/threonine-protein kinase LATS1 (Homo sapiens); assay: Activation of LATS1 in triple-negative human SUM159 cells assessed as induction of YAP degradation by measuring suppression of YAP protein expression at 0.25 to 1 uM measured after 12 hrs in presence of 10 uM proteosomal inhibitor, MG132 by Western blot analysis

Structure (SMILES): CC(=O)Nc1ccc(NC(=O)Nc2cccc(-c3nc(-c4ccc(NC(=O)c5cccnc5)cc4Cl)no3)c2)cc1C(F)(F)F
- Activity [1]: Non-Toxic
- IC50 (MCF7): > 1200 nM
- Activity [2]: Dose-dependent effect
- Activity (PC-9): Active
- Activity (MDA-MB-231 [3]): inactive
- Activity [4]: Dose-dependent effect
- inhibition (PC-3): inactive
- Activity [5]: inactive
- Activity [6]: inactive
- Activity (SUM-159-PT [7]): Dose-dependent effect
- IC50 (SUM-159-PT [7]): 400 to 800 nM
- Activity (MDA-MB-231 [8]): Active
- Activity (SUM-159-PT [9]): Tde
- Activity (MDA-MB-231 [10]): Tde
- Activity [11]: Non-Toxic
- Activity [12]: Non-Toxic
- Activity [13]: Dose-dependent effect
- Activity (MDA-MB-231 [14]): inactive
- Activity [15]: Active
- Activity (SUM-159-PT [16]): inactive
- Activity (Homo sapiens): inactive
- Activity (SUM-159-PT [17]): inactive
- Activity [18]: inactive

From ChEMBL document CHEMBL4342507, “Targeting YAP Degradation by a Novel 1,2,4-Oxadiazole Derivative via Restoration of the Function of the Hippo Pathway” (ACS Med Chem Lett, 2020)
